Experimental data published in patent publication US20150329558A1, “FUSED HETEROCYCLIC COMPOUNDS AS ION CHANNEL MODULATORS” (Gilead Sciences, Inc., priority 2011, published 2015).
Like-named read-outs stand apart in the source and are kept apart here.

Columns and labels:
[1] = molecular target: wild-type human cardiac sodium channel, hNav1.5 (late INa) (Homo sapiens, UniProt Q14524); assay: Late INa screening assay (QPatch whole cell patch clamp); type: cell-based
How it was run: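 Compounds tested at 1 μM final in extracellular solution against tefluthrin (10 μM)-enhanced late current. Automated patch clamp (23-25° C) on HEK293 expressing alpha subunit alone: −120 mV holding, 250 ms depolarization to −20 mV every 10 s. Read-out is percent inhibition of mean current over 225–250 ms.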

[2] = Microsomal stability assay, rat; type: in vitro ADME; settings: metabolic stability, rat liver microsomes 0.5 mg/mL, substrate 3 uM
How it was run: (§1)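 Liver microsomes at 0.5 mg/mL protein in 100 mM KPO4 buffer, incubated with 3 uM compound and NADPH-regenerating system, run in duplicate. Samples taken at 2, 12, 25, 45 and 65 min and quenched in MeOH/ACN/water before analysis.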

[3] = Microsomal stability assay, human; type: in vitro ADME; settings: metabolic stability, human liver microsomes 0.5 mg/mL, substrate 3 uM
How it was run: as §1

[4] = molecular target: wild-type human cardiac sodium channel, hNav1.5 (peak INa) (Homo sapiens, UniProt Q14524); assay: Peak INa screening assay (tonic and use-dependent block); type: cell-based
Description: The late sodium current (Late INa) and peak sodium current (Peak INa) assays are performed on an automated electrophysiology platform, QPatch 16× (Sophion Bioscience, Copenhagen, Denmark), which uses the whole cell patch clamp technique to measure currents through the cell membrane of up to 16 cells at a time. The assay uses an HEK293 (human embryonic kidney) cell line heterologously expressing the wild-type human cardiac sodium channel, hNav1.5, purchased from Millipore (Billerica, Mass.). No beta subunits were coexpressed with the Na channel alpha subunit. Cells are maintained with standard tissue culture procedures and stable channel expression is maintained with 400 μg/mL Geneticin in the culture medium. […] Experiments are carried out at 23-25° C. For both the Late INa and Peak INa assays, series resistance compensation is set to 100% and series resistance and whole-cell compensation are performed automatically. Currents are digitized at 25 kHz and low-pass filtered at 12 kHz and 10 kHz for the late and peak INa assays, respectively. Currents through open sodium channels are automatically recorded and stored in the Sophion Bioscience Oracle database (Sophion Bioscience, Copehagen, Denmark). Analysis is performed using QPatch Assay and database software and data are compiled in Excel. Compound stocks are routinely made by the Gilead Sample Bank in plastic vials to 10 mM in dimethyl sulfoxide (DMSO). In some cases, when compounds are not soluble in DMSO, they are made in 100% ethanol. Stocks are sonicated as necessary. […] The intracellular solution used to perfuse the inside of the cells for both the Late INa and Peak INa assays contains: 120 mM CsF, 20 mM CsCl, 5 mM EGTA, 5 mM HEPES and pH adjusted to 7.4 with CsOH. Compounds are diluted in extracellular solution to 1 μM in glass vials and then transferred to glass well plates before robotic addition to the cells. […] Compounds were also evaluated for their effect in several other assays, including their effect on Peak INa. Good separation between the concentrations of test compound to reduce late and peak INa is beneficial to enable separation of the desired effect to reduce late INa-induced electrical and mechanical dysfunction from the undesired effect to reduce peak INa, which can lead to slowing or block of conduction of electrical excitation in the heart. It is contemplated that the compounds of Formula I avoid significant block of peak INa. Since the peak INa in the cells used herein can be very large, introducing artifacts in the recording, the concentration of Na^+ in the bath can be reduced to 20 mM and a nonpermeant cation added to compensate for the Na^+ that was removed to maintain the osmolarity and ionic strength of the solution (see solution details below). Analysis of peak INa generally requires correction for rundown before determining the % block of peak current by the tested compound. […] A low stimulation frequency of 0.1 Hz was used to determine the effect of the test compound when the channel spent most of the time in the resting (closed) state and provides information about Tonic Block (TB). A higher stimulation frequency (3 Hz) was used to measure block of the channel when it spent more time in the activated and inactivated states and provided a measure of Use-Dependent Block (UDB). Use-dependent block refers to the accumulation of block with increased frequency of channel activation. Block of cardiac peak INa by compounds of this invention is increased with an increase in the frequency of stimulation from 0.1 to 1-5 Hz (frequencies encountered either in the normal heart or during tachycardia). It is therefore expected that reduction of peak INa by compounds of this invention will be greater at high heart rates, such as those during tachyarrhythmias, than at normal heart rates. […]

[5] = Microsomal stability assay, dog; type: in vitro ADME; settings: metabolic stability, dog liver microsomes 0.5 mg/mL, substrate 3 uM
How it was run: as §1

[6] = percent block of late INa, compound at 1 μM, 10 μM Tefluthrin, HEK293 hNav1.5, read-out: Late INa 1 μM
[7] = tonic block of peak INa, 0.1 Hz, 1 μM, read-out: Peak TB 1 μM
[8] = use-dependent block of peak INa, 3 Hz, 1 μM, read-out: Peak UDB 1 μM
[9] = % inhibition at 1 μM, read-out: NAv1.5*-LATE-
[10] = % inhibition at 1 μM, tonic block, read-out: NAv1.5*-PEAK-TB-
[11] = % inhibition at 1 μM, use-dependent block 3 Hz, read-out: NAv1.5*-PEAK-UDB-3 HZ-

wild-type human cardiac sodium channel, hNav1.5 (peak INa), sequence (Q14524 whole entry): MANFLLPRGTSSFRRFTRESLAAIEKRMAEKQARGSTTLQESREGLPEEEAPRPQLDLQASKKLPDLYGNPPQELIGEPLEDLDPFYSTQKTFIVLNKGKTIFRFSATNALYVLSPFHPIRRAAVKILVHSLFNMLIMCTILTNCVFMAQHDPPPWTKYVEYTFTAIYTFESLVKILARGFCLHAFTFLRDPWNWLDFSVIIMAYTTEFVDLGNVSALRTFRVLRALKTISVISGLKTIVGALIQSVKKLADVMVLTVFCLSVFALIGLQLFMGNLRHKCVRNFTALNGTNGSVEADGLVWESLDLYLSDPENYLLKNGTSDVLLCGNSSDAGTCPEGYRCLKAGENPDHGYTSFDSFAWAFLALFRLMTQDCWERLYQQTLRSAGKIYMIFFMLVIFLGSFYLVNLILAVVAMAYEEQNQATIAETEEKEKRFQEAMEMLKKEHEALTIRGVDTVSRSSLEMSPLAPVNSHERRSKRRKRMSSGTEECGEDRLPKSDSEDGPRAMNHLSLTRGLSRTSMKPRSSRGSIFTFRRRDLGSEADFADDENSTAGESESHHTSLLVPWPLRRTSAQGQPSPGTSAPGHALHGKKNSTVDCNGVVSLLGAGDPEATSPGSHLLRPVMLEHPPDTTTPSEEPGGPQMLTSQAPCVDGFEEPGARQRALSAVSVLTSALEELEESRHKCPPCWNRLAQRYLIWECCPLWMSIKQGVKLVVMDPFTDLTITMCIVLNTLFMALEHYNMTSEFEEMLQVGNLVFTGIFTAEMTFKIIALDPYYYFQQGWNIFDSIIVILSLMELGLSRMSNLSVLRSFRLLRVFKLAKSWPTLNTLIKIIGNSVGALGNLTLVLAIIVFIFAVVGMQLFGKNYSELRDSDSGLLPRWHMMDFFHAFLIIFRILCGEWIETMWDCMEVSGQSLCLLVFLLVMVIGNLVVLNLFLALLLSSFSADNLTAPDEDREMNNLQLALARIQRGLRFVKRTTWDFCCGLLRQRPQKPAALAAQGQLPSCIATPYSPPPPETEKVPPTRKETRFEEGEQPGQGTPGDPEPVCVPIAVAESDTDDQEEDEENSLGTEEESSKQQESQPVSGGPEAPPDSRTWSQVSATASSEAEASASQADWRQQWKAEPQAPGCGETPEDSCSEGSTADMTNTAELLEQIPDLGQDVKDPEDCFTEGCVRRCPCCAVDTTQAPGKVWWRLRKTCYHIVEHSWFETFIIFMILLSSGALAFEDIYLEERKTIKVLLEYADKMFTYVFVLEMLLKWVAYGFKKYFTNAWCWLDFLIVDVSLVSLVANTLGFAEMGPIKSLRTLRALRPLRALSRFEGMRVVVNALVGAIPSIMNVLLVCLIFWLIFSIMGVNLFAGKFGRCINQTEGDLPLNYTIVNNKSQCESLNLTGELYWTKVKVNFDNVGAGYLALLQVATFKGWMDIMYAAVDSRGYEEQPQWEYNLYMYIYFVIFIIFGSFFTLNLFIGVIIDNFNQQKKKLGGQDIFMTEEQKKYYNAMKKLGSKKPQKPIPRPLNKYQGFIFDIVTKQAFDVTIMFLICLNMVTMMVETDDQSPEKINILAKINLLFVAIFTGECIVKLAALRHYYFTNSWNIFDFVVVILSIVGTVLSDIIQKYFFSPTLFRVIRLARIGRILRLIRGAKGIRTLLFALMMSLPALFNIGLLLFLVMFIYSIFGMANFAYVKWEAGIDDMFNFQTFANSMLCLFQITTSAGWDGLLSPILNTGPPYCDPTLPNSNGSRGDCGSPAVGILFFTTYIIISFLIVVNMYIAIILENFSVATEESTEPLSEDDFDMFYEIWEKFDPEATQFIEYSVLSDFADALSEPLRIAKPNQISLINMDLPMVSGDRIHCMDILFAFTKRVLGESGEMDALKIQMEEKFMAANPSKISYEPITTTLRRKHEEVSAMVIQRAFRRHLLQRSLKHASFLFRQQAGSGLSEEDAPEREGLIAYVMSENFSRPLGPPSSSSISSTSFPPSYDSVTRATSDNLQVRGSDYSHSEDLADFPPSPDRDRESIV
wild-type human cardiac sodium channel, hNav1.5 (late INa), sequence (Q14524 whole entry): as above

Cc1noc(Cn2nnc3ccc(-c4ccc(C5CC5)cc4)cc3c2=O)n1 [II-73, 6-(4-cyclopropylphenyl)-3-((3-methyl-1,2,4-oxadiazol-5-yl)methyl)benzo[d][1,2,3]triazin-4(3H)-one]
inhibition at 1 µM [1, 6]: 45% | MS Rat THalf [2]: 29 min | MS Human THalf [3]: 16 min | inhibition at 1 µM [4, 7]: 6% | inhibition at 1 µM [4, 8]: 1% | MS Dog THalf [5]: 5 min

O=c1c2cc(-c3ccc(OC(F)(F)F)cc3)ccc2cnn1CCOc1nccc(C2CC2)n1 [III-29, 2-(2-(4-cyclopropylpyrimidin-2-yloxy)ethyl)-7-(4-(trifluoromethoxy)phenyl)phthalazin-1 (2H)-one]
inhibition at 1 µM [1, 6]: 58% | MS Rat THalf [2]: 26 min | MS Human THalf [3]: 19 min | inhibition at 1 µM [4, 7]: 10% | inhibition at 1 µM [4, 8]: 9% | MS Dog THalf [5]: 18 min

O=c1c2cc(-c3ccc(OC(F)(F)F)cc3)ccc2cnn1CCOc1ncc(Cl)cn1 [III-37, 2-(2-(5-chloropyrimidin-2-yloxy)ethyl)-7-(4-(trifluoromethoxy)phenyl)phthalazin-1 (2H)-one]
inhibition at 1 µM [1, 6]: 50% | MS Rat THalf [2]: 96 min | MS Human THalf [3]: 157 min | inhibition at 1 µM [4, 7]: 7% | inhibition at 1 µM [4, 8]: 4% | MS Dog THalf [5]: 37 min

COc1cc(OC)nc(Cn2nnc3ccc(-c4ccc(OC(F)(F)F)cc4)cc3c2=O)n1 [II-44, 3-((4,6-dimethoxypyrimidin-2-yl)methyl)-6-(4-(trifluoromethoxy)phenyl)benzo[d][1,2,3]triazin-4(3H)-one]
inhibition at 1 µM [1, 6]: 47% | MS Rat THalf [2]: 97 min | MS Human THalf [3]: 167 min | inhibition at 1 µM [4, 7]: 10% | inhibition at 1 µM [4, 8]: 4% | MS Dog THalf [5]: 283 min

Cc1cc(Cn2nnc3ccc(-c4ccc(OC(F)(F)F)cc4)cc3c2=O)on1 [II-25, 3-((3-methylisoxazol-5-yl)methyl)-6-(4-(trifluoromethoxy)phenyl)benzo[d][1,2,3]triazin-4(3H)-one]
inhibition at 1 µM [1, 6]: 50% | MS Rat THalf [2]: 298 min | MS Human THalf [3]: 363 min | inhibition at 1 µM [4, 7]: 9% | inhibition at 1 µM [4, 8]: 2% | MS Dog THalf [5]: 117 min

O=C1c2cc(-c3ccc(C(F)(F)F)cc3)ccc2SCN1Cc1ccccc1Cl [Compound X-5, 3-(2-chlorobenzyl)-6-(4-(trifluoromethyl)phenyl)-2H-benzo[e][1,3]thiazin-4(3H)-one]
inhibition at 1 µM [1, 6]: 57% | MS Rat THalf [2]: 57 min | MS Human THalf [3]: 48 min | inhibition at 1 µM [4, 7]: 12% | inhibition at 1 µM [4, 8]: 35% | MS Dog THalf [5]: 55 min

O=C1c2cc(-c3ccc(OC(F)(F)F)cc3)ccc2SCN1Cc1ccccn1 [Compound X-1, 3-(pyridin-2-ylmethyl)-6-(4-(trifluoromethoxy)phenyl)-2H-benzo[e][1,3]thiazin-4(3H)-one]
inhibition at 1 µM [1, 6]: 47% | MS Rat THalf [2]: 58 min | MS Human THalf [3]: 74 min | inhibition at 1 µM [4, 7]: 14% | inhibition at 1 µM [4, 8]: 22% | MS Dog THalf [5]: 107 min

O=C(c1ncccn1)N1CCc2ccc(-c3ccc(OC(F)(F)F)cc3)cc2C1 [IX-11, pyrimidin-2-yl(7-(4-(trifluoromethoxy)phenyl)-3,4-dihydroisoquinolin-2(1H)-yl)methanone]
inhibition at 1 µM [1, 9]: 44% | inhibition at 1 µM [1, 6]: 44% | MS Rat THalf [2]: 348 min | MS Human THalf [3]: 145 min | inhibition at 1 µM [4, 10]: 17% | inhibition at 1 µM [4, 11]: 22% | inhibition at 1 µM [4, 7]: 17% | inhibition at 1 µM [4, 8]: 22% | MS Dog THalf [5]: 332 min

CC(Cn1ncc2ccc(-c3ccc(OC(F)(F)F)cc3)cc2c1=O)n1cccn1 (stereo not drawn) [III-38, 2-(2-(1H-pyrazol-1-yl)propyl)-7-(4-(trifluoromethoxy)phenyl)phthalazin-1 (2H)-one]
inhibition at 1 µM [1, 6]: 52% | MS Rat THalf [2]: 24 min | MS Human THalf [3]: 54 min | inhibition at 1 µM [4, 7]: 9% | inhibition at 1 µM [4, 8]: 11% | MS Dog THalf [5]: 31 min

O=c1c2cc(-c3ccc(Oc4ccc(Cl)cc4)cc3)ccc2nnn1CCn1cccn1 [II-29, 3-(2-(1H-pyrazol-1-yl)ethyl)-6-(4-(4-chlorophenoxyl)phenyl)benzo[d][1,2,3]triazin-4(3H)-one]
inhibition at 1 µM [1, 6]: 52% | MS Rat THalf [2]: 27 min | MS Human THalf [3]: 51 min | inhibition at 1 µM [4, 7]: 44% | inhibition at 1 µM [4, 8]: 67% | MS Dog THalf [5]: 99 min

COC(=O)C1(Cn2nnc3ccc(-c4ccc(OC(F)(F)F)cc4)cc3c2=O)CC1 [II-55, methyl 1-((4-oxo-6-(4-(trifluoromethoxy)phenyl)benzo[d][1,2,3]triazin-3 (4H)-yl)methyl)cyclopropanecarboxylate]
inhibition at 1 µM [1, 9]: 58% | inhibition at 1 µM [1, 6]: 58% | MS Rat THalf [2]: 2 min | MS Human THalf [3]: 14 min | inhibition at 1 µM [4, 10]: 7% | inhibition at 1 µM [4, 11]: 3% | inhibition at 1 µM [4, 7]: 7% | inhibition at 1 µM [4, 8]: 3% | MS Dog THalf [5]: 2 min

O=c1c2cc(-c3ccc(OC(F)(F)F)cc3)ccc2nnn1Cc1cc(-c2ccccn2)on1 [II-47, 3-((5-(pyridin-2-yl)isoxazol-3-yl)methyl)-6-(4-(trifluoromethoxy)phenyl)benzo[d][1,2,3]triazin-4(3H)-one]
inhibition at 1 µM [1, 6]: 44% | MS Rat THalf [2]: 71 min | MS Human THalf [3]: 339 min | inhibition at 1 µM [4, 7]: 6% | inhibition at 1 µM [4, 8]: 4% | MS Dog THalf [5]: 24 min

O=c1c2cc(-c3ccc(OC(F)(F)F)cc3)ccc2cnn1Cc1nccc(OCC2CC2)n1 [III-27, 2((4-(cyclopropylmethoxy)pyrimidin-2-yl)methyl)-7-(4-(trifluoromethoxy)phenyl)phthalazin-1 (2H)-one]
inhibition at 1 µM [1, 6]: 52% | MS Rat THalf [2]: 43 min | MS Human THalf [3]: 268 min | inhibition at 1 µM [4, 7]: 15% | inhibition at 1 µM [4, 8]: 15% | MS Dog THalf [5]: 83 min

O=c1c2cc(-c3ccc(OC(F)(F)F)cc3)ccc2cnn1CCOc1cnccn1 [III-39, 2-(2-(pyrazin-2-yloxy)ethyl)-7-(4-(trifluoromethoxy)phenyl)phthalazin-1 (2H)-one]
inhibition at 1 µM [1, 6]: 47% | MS Rat THalf [2]: 30 min | MS Human THalf [3]: 44 min | inhibition at 1 µM [4, 7]: 7% | inhibition at 1 µM [4, 8]: 0% | MS Dog THalf [5]: 14 min

O=C(c1ncc[nH]1)N1CCc2ccc(-c3ccc(C(F)(F)F)cc3)cc2C1 [IX-57, (1H-imidazol-2-yl)(7-(4-(trifluoromethyl)phenyl)-3,4-dihydroisoquinolin-2(1H)-yl)methanone]
inhibition at 1 µM [1, 9]: 44% | inhibition at 1 µM [1, 6]: 44% | MS Rat THalf [2]: 132 min | MS Human THalf [3]: 159 min | inhibition at 1 µM [4, 10]: 10% | inhibition at 1 µM [4, 11]: 6% | inhibition at 1 µM [4, 7]: 10% | inhibition at 1 µM [4, 8]: 6% | MS Dog THalf [5]: 245 min
